The test system of the test is BDF1 mice, P388 leukemia ip, median survival T/C. The test can be described thus: NCI In Vivo Anticancer Drug Screen. Data for tumor model P388 Leukemia (intraperitoneal) in B6D2F1 (BDF1) mice. Particulars: endpoint: median survival time, higher = longer survival. An outline of the steps: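 Antitumour effect was judged in vivo: survival in drug-treated mice, normalised to that of vehicle-dosed controls, gives the reported T/C.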

Where [1] appears, read: dose: 100.0 mg/kg/injection, schedule: Q01DX009 (ip), vehicle: saline with Tween-80.
The mark [2] stands for this setting: dose: 100.0 mg/kg/injection, schedule: Q04DX003 (ip), vehicle: saline with Tween-80.
[3] abbreviates: dose: 200.0 mg/kg/injection, schedule: Q04DX003 (ip), vehicle: saline with Tween-80.
[4] abbreviates: dose: 200.0 mg/kg/injection, schedule: Q01DX009 (ip), vehicle: saline with Tween-80.
Setting [5] is: dose: 50.0 mg/kg/injection, schedule: Q01DX009 (ip), vehicle: saline with Tween-80.

Where “and” joins values, the source holds several entries; their conditions need not be identical. Equal entries are not always repeated. Inconclusive results and toxic doses are left out.

Consider `CC[C@@]1(O)C[C@H](OC2CC(N(C)C)C(OC3CC(O)C(OC4CCC(=O)C(C)O4)C(C)O3)C(C)O2)c2c(cc3c(c2O)C(=O)c2c(O)ccc(O)c2C3=O)[C@H]1C(=O)OC` (some centres undefined), for which the T/C is, setting by setting: (dose: 0.39 mg/kg/injection, schedule: Q01DX009 (ip), vehicle: water) 111 % of control; (dose: 0.5 mg/kg/injection, schedule: Q01DX003 (ip), vehicle: saline) 163 % of control; (dose: 0.5 mg/kg/injection, schedule: Q01DX009 (ip), vehicle: water) 117 % of control; (dose: 0.65 mg/kg/injection, schedule: Q01DX009 (ip), vehicle: water) 152 % of control; (dose: 0.75 mg/kg/injection, schedule: Q01DX010 (ip), vehicle: saline) 170 % of control; (dose: 1.0 mg/kg/injection, schedule: Q01DX003 (ip), vehicle: saline) 190 % of control. Also, the T/C is 154 % of control (dose: 1.0 mg/kg/injection, schedule: Q01DX009 (ip), vehicle: saline); 86 % of control (dose: 1.0 mg/kg/injection, schedule: Q01DX009 (ip), vehicle: water); 102 % of control (dose: 1.0 mg/kg/injection, schedule: Q04DX003 (ip), vehicle: water); 177 % of control and 180 % of control (dose: 1.08 mg/kg/injection, schedule: Q01DX009 (ip), vehicle: water); 175 % of control (dose: 1.5 mg/kg/injection, schedule: Q01DX010 (ip), vehicle: saline); 155 % of control (dose: 1.73 mg/kg/injection, schedule: Q04DX003 (ip), vehicle: other). For the same compound, the T/C by setting is: (dose: 1.8 mg/kg/injection, schedule: Q01DX009 (ip), vehicle: water) 225 % of control and 200 % of control; (dose: 2.0 mg/kg/injection, schedule: Q01DX003 (ip), vehicle: saline) 109 % of control; (dose: 2.0 mg/kg/injection, schedule: Q01DX009 (ip), vehicle: saline) 191 % of control; (dose: 2.0 mg/kg/injection, schedule: Q01DX009 (ip), vehicle: water) 90 % of control; (dose: 2.0 mg/kg/injection, schedule: Q04DX003 (ip), vehicle: water) 119 % of control; (dose: 2.88 mg/kg/injection, schedule: Q04DX003 (ip), vehicle: other) 186 % of control. The T/C (dose: 3.0 mg/kg/injection, schedule: Q01DX010 (ip), vehicle: saline) was 90 % of control; the T/C (dose: 4.8 mg/kg/injection, schedule: Q04DX003 (ip), vehicle: other) was 109 % of control; the T/C (dose: 5.0 mg/kg/injection, schedule: Q04DX003 (ip), vehicle: water) is 203 % of control; the T/C (dose: 8.44 mg/kg/injection, schedule: Q01DX001 (ip), vehicle: water) was 158 % of control; the T/C (dose: 10.0 mg/kg/injection, schedule: Q04DX003 (ip), vehicle: water) is 88 % of control; the T/C (dose: 11.25 mg/kg/injection, schedule: Q01DX001 (ip), vehicle: water) is 152 % of control. Moreover, the T/C was 117 % of control (dose: 13.33 mg/kg/injection, schedule: Q04DX003 (ip), vehicle: water); 100 % of control (dose: 15.0 mg/kg/injection, schedule: Q01DX001 (ip), vehicle: water); 50 % of control (dose: 20.0 mg/kg/injection, schedule: Q01DX001 (ip), vehicle: water).
For the compound `Cc1c(C(=O)CCl)c(=O)n(-c2ccccc2)n1C`, the T/C is, setting by setting: (dose: 25.0 mg/kg/injection, schedule: Q01DX009 (ip), vehicle: Klucel (hydroxypropylcellulose) (HPC)) 100 % of control; (dose: 25.0 mg/kg/injection, schedule: Q04DX003 (ip), vehicle: Klucel (hydroxypropylcellulose) (HPC)) 96 % of control; (dose: 50.0 mg/kg/injection, schedule: Q01DX009 (ip), vehicle: Klucel (hydroxypropylcellulose) (HPC)) 104 % of control; (dose: 50.0 mg/kg/injection, schedule: Q04DX003 (ip), vehicle: Klucel (hydroxypropylcellulose) (HPC)) 100 % of control; (dose: 100.0 mg/kg/injection, schedule: Q01DX009 (ip), vehicle: Klucel (hydroxypropylcellulose) (HPC)) 91 % of control; (dose: 100.0 mg/kg/injection, schedule: Q04DX003 (ip), vehicle: Klucel (hydroxypropylcellulose) (HPC)) 100 % of control and 103 % of control.
As to `O=C1CN(c2ccccc2)CC(=O)N2C(c3ccccc3)CCCN12` (centres undefined), the T/C was 113 % of control (dose: 50.0 mg/kg/injection, schedule: Q01DX005 (ip), vehicle: saline with Tween-80); 97 % of control (dose: 100.0 mg/kg/injection, schedule: Q01DX005 (ip), vehicle: saline with Tween-80); 97 % of control (dose: 200.0 mg/kg/injection, schedule: Q01DX005 (ip), vehicle: saline with Tween-80).
As for `CCC1OCC(C(Cl)CCl)O1` (centres undefined), the T/C is 118 % of control under setting [1]; 113 % of control under setting [2]; 118 % of control under setting [3]; 104 % of control (dose: 400.0 mg/kg/injection, schedule: Q04DX003 (ip), vehicle: saline with Tween-80).
`N=C(N=C(N)N)N1CCOCC1`: the T/C was 110 % of control (dose: 50.0 mg/kg/injection, schedule: Q04DX003 (ip), vehicle: saline with Tween-80); 115 % of control under setting [2]; 105 % of control under setting [3].
In the case of `CC1OC(OC2C(=O)c3c(O)cc(O)cc3OC2c2ccc(O)c(O)c2)C(O)C(O)C1O` (centres undefined), the T/C (dose: 25.0 mg/kg/injection, schedule: Q01DX009 (ip), vehicle: alcohol) is 100 % of control; the T/C (dose: 50.0 mg/kg/injection, schedule: Q01DX009 (ip), vehicle: alcohol) is 96 % of control; the T/C (dose: 100.0 mg/kg/injection, schedule: Q01DX009 (ip), vehicle: alcohol) was 92 % of control; the T/C (dose: 200.0 mg/kg/injection, schedule: Q01DX009 (ip), vehicle: alcohol) was 106 % of control; the T/C under setting [4] was 115 % of control; the T/C (dose: 300.0 mg/kg/injection, schedule: Q01DX009 (ip), vehicle: saline with Tween-80) is 90 % of control. Moreover, the T/C (dose: 455.0 mg/kg/injection, schedule: Q01DX009 (ip), vehicle: saline with Tween-80) was 99 % of control.
Regarding `CCOC(=O)C(OCc1ccccc1)(C(=O)NCCc1ccc(OC)c(OC)c1)C(C)C` (centres undefined), the T/C was 100 % of control (dose: 25.0 mg/kg/injection, schedule: Q04DX003 (ip), vehicle: other); 108 % of control (dose: 50.0 mg/kg/injection, schedule: Q04DX003 (ip), vehicle: other); 93 % of control (dose: 100.0 mg/kg/injection, schedule: Q04DX003 (ip), vehicle: other).
Turning to `CC(=O)[C@H]1CC[C@H]2[C@@H]3CCC4=CC(=O)[C@H](C)C[C@]4(C)[C@H]3C(=O)C[C@]12C`, the T/C by setting is: under setting [1], 90 % of control; under setting [4], 95 % of control.
Regarding `O=C1NC(c2cccs2)(c2cccs2)C(=O)N1Cl`, the T/C was 94 % of control (dose: 6.25 mg/kg/injection, schedule: Q01DX009 (ip), vehicle: water); 97 % of control (dose: 6.25 mg/kg/injection, schedule: Q04DX003 (ip), vehicle: water); 104 % of control (dose: 12.5 mg/kg/injection, schedule: Q01DX009 (ip), vehicle: water); 97 % of control (dose: 12.5 mg/kg/injection, schedule: Q04DX003 (ip), vehicle: water); 103 % of control (dose: 25.0 mg/kg/injection, schedule: Q01DX009 (ip), vehicle: water); 97 % of control (dose: 25.0 mg/kg/injection, schedule: Q04DX003 (ip), vehicle: water). For the same compound, the T/C (dose: 50.0 mg/kg/injection, schedule: Q01DX009 (ip), vehicle: water) is 116 % of control; the T/C (dose: 50.0 mg/kg/injection, schedule: Q04DX003 (ip), vehicle: water) was 95 % of control; the T/C (dose: 100.0 mg/kg/injection, schedule: Q04DX003 (ip), vehicle: water) is 95 % of control; the T/C (dose: 200.0 mg/kg/injection, schedule: Q04DX003 (ip), vehicle: water) is 88 % of control.
As to `O=C1OC2=C(Cl)C=CC=CC2C12C1C=CC=CC12` (centres undefined), the T/C under setting [5] is 113 % of control, the T/C under setting [1] is 110 % of control and the T/C under setting [4] is 107 % of control.
`CC(Cc1ccc2ccccc2c1)C(=O)c1ccc2ccccc2c1` (centres undefined): the T/C reads like this: (dose: 100.0 mg/kg/injection, schedule: Q01DX001 (ip), vehicle: saline with Tween-80) 100 % of control; (dose: 200.0 mg/kg/injection, schedule: Q01DX001 (ip), vehicle: saline with Tween-80) 100 % of control; (dose: 400.0 mg/kg/injection, schedule: Q01DX001 (ip), vehicle: saline with Tween-80) 100 % of control.
On to `Cc1csc(NC(=O)Nc2ccc(F)cc2[N+](=O)[O-])n1`, for which the T/C reads like this: (dose: 12.5 mg/kg/injection, schedule: Q01DX009 (ip), vehicle: saline with Tween-80) 110 % of control; (dose: 25.0 mg/kg/injection, schedule: Q01DX009 (ip), vehicle: saline with Tween-80) 88 % of control; under setting [5], 120 % of control.

The values above are taken from PubChem BioAssay AID328 (DTP/NCI, 2004).
